From PubChem BioAssay (NCI) come the findings set out here.

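Briefly, cells in 96-well plates were exposed to five compound concentrations for 48 h, and endpoints were estimated by linear interpolation. Here, GI50 denotes the concentration required for 50% inhibition of growth. TGI: concentration producing complete growth inhibition.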

Common to all, as to assay: inhibition of tumour cell growth, NCI panel, 48 h
The subject of experiment [1] is M14 melanoma.
The test system of experiment [2] is HCT-116 colon.
The subject of experiment [3] is SNB-19 CNS.
The test system of experiment [4] is HT29 colon.
In experiment [5] the test system is OVCAR-8 ovarian.
The test system of experiment [6] is LOX IMVI melanoma.
In experiment [7] the test system is OVCAR-5 ovarian.
Experiment [8] has as its system SR leukemia.
Experiment [9] has as its system SF-295 CNS.
The subject of experiment [10] is TK-10 renal.

For `Cc1ccccc1Nc1nc2c(s1)C(=O)c1ccccc1C2=O`, the TGI in experiment [1] came to 12.1 µM; in experiment [2] it was 6.66 µM; in experiment [3], 13.2 µM; in experiment [4], 40.7 µM; in experiment [5], 9.05 µM; in experiment [6] it was 5.27 µM. Besides, the TGI was found to be 38 µM in experiment [7], 11.4 µM in experiment [8], 32.9 µM in [9] and 38.4 µM in experiment [10].

`CC1(C)N=C(N)N=C(N)N1c1ccc(OCC(=O)Nc2ccccc2)c(Cl)c1`: the GI50 was 13.8 µM in experiment [1]; 0.502 µM in experiment [2]; 28.8 µM in experiment [3]; 0.333 µM in [4]; 6.69 µM in [5]; 0.589 µM in [6]. Also, the GI50 was more than 100 µM in experiment [7], 0.515 µM in experiment [8], 0.702 µM in [9] and 32.4 µM in experiment [10]. For the same compound, the TGI in experiment [1], in experiment [2], in [3], in experiment [4], in experiment [5] and in experiment [6] was more than 100 µM in each case. The TGI in experiment [7] is more than 100 µM; in [8], more than 51.6 µM; in experiment [9], more than 100 µM; in experiment [10], more than 100 µM.

With `C=CCO/N=C/c1cc(NC(=S)c2ccoc2C)ccc1Cl`, the TGI was 37.9 µM in [1]; more than 100 µM in [2]; 21.2 µM in [3]; 26.2 µM in [4]; 33.9 µM in experiment [5]; 44.5 µM in experiment [6]. The TGI in experiment [7] came out at 33.8 µM; in experiment [8] it was 30.9 µM; in [9], 26.6 µM; in experiment [10], 42.2 µM.

As for `COc1cccc(/C=C2\CCC(C)(CN(C)C)C2=O)c1` (stereo not given), the TGI in experiment [1], in experiment [2], in experiment [3], in experiment [4], in experiment [5] and in experiment [6] was more than 100 µM throughout. The TGI in experiment [7], in experiment [8], in experiment [9] and in [10] was more than 100 µM throughout.

For `Cn1c(/C(C#N)=C/c2ccc3ccccc3c2)cc2ccccc21`, the GI50 was 0.104 µM in [1]; 0.0774 µM in experiment [2]; 0.256 µM in [3]; 0.353 µM in [4]; 0.421 µM in experiment [5]; 0.12 µM in experiment [6]. Besides, the GI50 in [7] was 0.411 µM; in experiment [8] it was 0.114 µM; in experiment [9], 0.11 µM; in experiment [10], more than 100 µM. The TGI in experiment [1], in experiment [2], in experiment [3], in experiment [4], in experiment [5] and in experiment [6] was more than 100 µM each time. In addition, the TGI in experiment [7] is more than 100 µM; in experiment [8], more than 100 µM; in [9], 0.463 µM; in experiment [10], more than 100 µM.

As for `CC(CC(=O)Nc1ccc(NC(=O)CC(C)N=NC(N)=S)cc1)N=NC(N)=S` (stereo not given), the TGI in experiment [1], in [2], in [3], in experiment [4], in experiment [5] and in experiment [6] was more than 100 µM each time. The TGI in experiment [7], in experiment [8], in experiment [9] and in [10] was more than 100 µM in each case.

Turning to `COc1ccccc1/C=C/C(=O)/C=C/c1ccccc1O`, the GI50 in experiment [1] was 1.46 µM; in experiment [2], 0.174 µM; in experiment [3], 1.48 µM; in experiment [4] it was 0.853 µM; in experiment [5] it was 1.26 µM; in experiment [6], 0.724 µM. Moreover, the GI50 was 2.16 µM in [7], 0.39 µM in experiment [8], 1.99 µM in [9] and 2.72 µM in experiment [10]. Further, the TGI in experiment [1] was 3.17 µM; in [2] it was 0.379 µM; in [3], 2.94 µM; in [4], 2.75 µM; in experiment [5] it was 10.4 µM; in experiment [6], 2.01 µM. For the same compound, the TGI was 4.39 µM in [7], more than 100 µM in experiment [8], 5.23 µM in [9] and 5.74 µM in experiment [10].
